Laboratory results taken from patent publication US11110080B2, “Small molecule inhibitors of bacterial efflux pumps and methods of using same” (The Regents of the University of Colorado, a body Corporate, priority 2017, dated 2021).
“Also recorded” adds a separate entry of the source.

Key:
Format in all cases: cell-based, Salmonella enterica serovar Typhimurium
[1] = tested on: extracellular S.Tm grown in MHB broth; assay: Broth activity assay (growth / MIC in Mueller Hinton Broth); details: Salmonella enterica, three Salmonella strains SL1344, MAR1, S10801
Protocol: (§1) Overnight Salmonella cultures were washed 3 times in PBS and diluted to an OD of 0.01 in Mueller Hinton Broth in 96-well flat bottom plates. Compound was added using a pin tool (CyBio) or manually, yielding a final concentration of no more than 1% DMSO. Plates were grown at 37° C. shaking and OD600 was monitored using a BioTek Eon incubator shaker microplate absorbance reader. For experiments in defined media, bacteria were grown in M9 minimal media supplemented with 100 mM Tris pH 7.4, 0.35% glycerol, 0.002% histidine, 10 mM MgCl2, and 0.1% casamino acids. Where indicated, media was supplemented with 5 μg/ml polymyxin B or 0.2 mM H2O2. For experiments with LL-37, bacteria were grown in M9 minimal media supplemented with 0.4% dextrose, 0.004% histidine, 1 mM MgSO4, and 5 μg/ml LL-37. For checkerboard assays, MIC was defined as the concentration at which no growth was visually observed.

S.Tm efflux pumps [2] = assay: Hoechst 33342 accumulation assay
Protocol: Efflux pumps (EPs) represent a key pathogen virulence strategy to protect against host antimicrobials as well as therapeutic antibiotics. […] To uncover putative EPMs within our collection of hits, 58 repurchased compounds were screened in a Hoechst accumulation assay. Bacteria were incubated with Hoechst 33342, a dye which fluoresces when bound to DNA.
Hoechst accumulation assays were performed essentially as described in the literature. Briefly, overnight Salmonella cultures were washed 3 times in PBS and diluted to an OD of 0.1 in PBS with 2.5 μM Hoechst 33342 in the presence of the indicated concentrations of compounds. Fluorescence was monitored on a Biotek Synergy 2 with a 360/40 nm excitation filter and 460/40 nm emission filter. The maximum Hoechst fluorescence over 60 minutes of incubation was normalized to the signal from the equivalent number of heat-killed bacteria, after subtraction of autofluroescent signal determined from compound incubated in the absence of bacteria. Curve fitting to determine EC50s was performed using GraphPad Prism.

S.Tm efflux pumps [3] = assay: Nile Red efflux assay
From the text: Because Hoechst and other dyes commonly used to assess efflux bind cellular components, direct measurement of efflux is not possible using these methods; instead, the Hoechst assay measures dye accumulation, the net result of entry and efflux. Further, the slow off-rate of Hoechst entails that efflux pumps have no effect on dye already bound to DNA. As a result, compounds which increase Hoechst accumulation may actually enhance dye entry by altering porins or disrupting the membrane. To more specifically measure efflux pump activity, a second technique was employed using the dye Nile Red, a lipophilic membrane-partitioning dye which fluoresces in nonpolar environments. Because Nile Red is not known to bind cellular components, to directly observe efflux cells were preloaded with the dye in the absence of glucose to reduce efflux pump activity (FIG. 7A). Upon addition of glucose, bacteria rapidly effluxed Nile Red and fluorescence returned to baseline levels (FIG. 7B, top panel). […] The initial measured fluorescence was lower for DMSO-treated cells (upper dotted line) than for PAβN-treated cells due to glucose-independent efflux during sample preparation (FIG. 8A). Next, it was determined whether efflux pump activity is restored after removal of PAβN. Bacteria were incubated with compound for 15 minutes, pelleted and resuspended in buffer lacking compound, and then stimulated with glucose (FIGS. 7C, 7E).
Nile Red assays were adapted from an established protocol. Briefly, overnight Salmonella cultures were grown in Mueller-Hinton cation-adjusted broth (Sigma), washed, and resuspended at an OD600 of 2.0. Cells were incubated in 10 μM Nile Red for 3 hours at 37° C. with aeration, then moved to room temperature for 1 hour. After pelleting at 2000× g, dye-loaded cells were aliquoted and combined with compound at the indicated concentrations. Two hundred microliters was loaded into 96-well black walled plates (Greiner) and read using a Varioskan Flash Multimode Reader with 540 nm excitation and 625 nm emission filters. We observed that during loading into plates (˜20 minutes), bacteria were able to efflux Nile Red even in the absence of glucose (FIG. 8A). To activate efflux, glucose was added to a final concentration of 2 mM. In some experiments, bacteria were treated with drug for 15 minutes, pelleted at 16,000×g, resuspended in fresh buffer, and stimulated with 2 mM glucose. All wash and incubation steps were performed in PBS with 1 mM MgCl2; incubations were performed in glass tubes to reduce adhesion of Nile Red.

S.Tm = assay: Swimming assay in soft agar (proton motive force); details: 50 mM, 10 μl on disk (500×, 125×, ~62.5× the MIC for EPM30, EPM35, EPM43)
Protocol: One way to inhibit efflux pumps is to disrupt the proton motive force, which is required for transport by some EPs. […] Bacteria were injected into the center of 0.25% agar plates, and 10 μl of compound was added to paper disks on the periphery. […] Also ampicillin and rifampicin were tested. We plotted the halo radius versus the concentration as the fold above the MIC (FIG. 9G). […] Next, it was determined whether PAβN inhibited swimming; PAβN is thought to disrupt membranes over long incubations. […] Finally, the EPMs at […] were tested (FIGS. 9D-F).
Saturated overnight cultures were diluted to an OD600 of 0.01 in LB and 1 μL was injected into the center of low agar (0.25%) LB plates. Ten microliters of the indicated compounds were added to sterilized Whatman paper disks (diameter 0.7 cm) placed equidistant from the plate center.

[4] = tested on: S.Tm wild-type SL1344, MAR1 and S10801; assay: microbe, parasite or virus in culture; details: MAR1 and S10801
Protocol: Increased expression or function of efflux pumps often contributes to clinical multidrug resistance. Therefore, whether the EPMs re-sensitize two multidrug resistant strains of S.Tm to tetracycline was tested. Tetracycline is an antibiotic exported by AcrAB. The MAR1 strain is derived from wild-type SL1344 was selected by exposure to tetracycline, and has increased expression of the AcrAB efflux pump. S10801 is an MDR strain isolated from the mesenteric lymph node of a septic calf and is resistant to tetracycline, ampicillin, chloramphenicol, nalidixic acid, and triple sulfa. The basis of multi-drug resistance in this strain is unknown.
as §1

S.Tm efflux pumps [5] = assay: Nile Red efflux assay; details: 20 minutes incubation in 75 μM

CC(C)c1nc(NC(=N)N)sc1Br [EPM30]
MIC [1]: 100 µM
Hoechst assay EC50 relative to PAβN (S.Tm efflux pumps [2]): lower than that of PAβN
Hoechst accumulation / fluorescence (S.Tm efflux pumps [2]; wild-type S.Tm, 60 minutes): increased S.Tm accumulation of Hoechst in a dose-dependent manner; also recorded: fluorescence comparable to that of PAβN
glucose-activated efflux of Nile Red (S.Tm efflux pumps [3]; 75 μM): fully inhibited efflux
Nile Red efflux after washout of compound (S.Tm efflux pumps [3]; 15 minutes with compound, washed, then glucose): partially restored efflux; also recorded: partially restored Nile Red export
Nile Red fluorescence in the absence of glucose (basal loss) (S.Tm efflux pumps [3]; no glucose): immediate reduction in fluorescence
halo in swimming assay (S.Tm): formed a halo
sensitivity of MDR S.Tm to tetracycline [4]: not
bacterial integrity and viability (S.Tm efflux pumps [5]): remain intact and viable
